≈ marks a conversion by molar mass, not a printed value. Read-outs that look alike come from different tables or passages of the source. No end group written: not given here.
Legend:
HepG2 cells [1] = test: cells; conditions: for EC50 (cellular antioxidant activity): 1 h
Description: Obtained from National Collection of Authenticated Cell Cultural (Shanghai, China), HepG2 cells between 20 and 35 passages were grown in medium (DMEM supplemented with 10% fetal bovine serum, 1% antibiotic–antimycotic solution) in a 5% CO2 incubator at 37 °C.
Cellular antioxidant activity (CAA) was determined according to the method of Wolfe et al.. HepG2 cells were seeded in 96-well plates (6 × 10^4 cells/well) and cultured for 24 h. DCFH-DA working solution (50 µL, 50 µM) and 50 µL of medium with sample (0.005–0.1 mg/mL) were added in the sample treated group. DCFH-DA working solution (50 µL, 50 µM) and sterile water (50 µL) were added to the control group and the blank group. After incubated for 1 h, the cells were washed with PBS. Then, AAPH working solution (100 µL, […]) was added to the sample treated group and the control group, and fresh medium was added to the blank group. Fluorescence values were determined every 5 min for 1 h at an excitation wavelength of 485 nm and a determination wavelength of 528 nm. […] The CAA unit was calculated by the area of fluorescence curve (AUC), as shown in Equation (3). […] The Trolox equivalent (TEAC µM TE/g peptides) was calculated to represent the CAA value. (3) CAA=[1−(AUCt−AUCo)/(AUCc−AUCo)]×100 where AUCt, AUCc, and AUCo were the fluorescence curve area of the test sample, the control, and the blank group, respectively.

HepG2 cells [2] = assay type: cell-based
Description: HepG2 cells were seeded in 96-well plates (1 × 10^4 cells/well) and cultured for 48 h. To the AAPH damage group, we added 150 µL of fresh medium containing AAPH (final concentration 0.025–25 mM), and to the control group, we added fresh medium without AAPH. After culturing for 24 h, cell viability was determined by the MTT method. HepG2 cells were seeded in 96-well plates (1 × 10^4 cells/well) and cultured for 24 h. To the sample treated group, we added 150 µL of fresh medium containing samples (0.025–0.2 mg/mL). To the control group and AAPH damage group, we added fresh medium without samples. After treating for 24 h, to the sample treated group and AAPH damage group, we added 50 µL of fresh medium containing AAPH (final concentrations of 0.25 and 10 mM). After culturing for 24 h, cell viability was determined.

HepG2 cells [3] = test system: HepG2 cells; set-up: method as in 2 sources, ref 23 = [23]; PMID 28764069; doi:10.1016/j.foodchem.2017.05.144; 23. Liang R. Zhang Z. Lin S. Effects of pulsed electric field on intracellular antioxidant activity and antioxidant enzyme regulating capacities of pine nut ( Pinus koraiensis ) peptide QDHCH in HepG2 ||| ref 24 = [24]; PMID 29195889; doi:10.1016/j.foodres.2016.10.023; 24. Wang L. Ding L. Yu Z. Zhang T. Ma S. Liu J. Intracellular ROS scavenging and antioxidant enzyme regulating capacities of corn gluten meal-derived antioxidant peptides in HepG2 cells Food Res. Int.; conditions: related report, pine nut peptide; cited from earlier work
Text: The principle of CAA is that intracellular lipase degrades the fluorescent probe DCFH-DA to DCFH, which is oxidized to fluorescent DCF by intracellular free radicals under AAPH induction, and the antioxidant peptide can protect the probe from oxidation. […] In related reports, ...

Molecule	EC50 (cellular antioxidant activity) (HepG2 cells [1]) [µg/mL]	cell viability, 50% cell viability model (HepG2 cells [2]; 24 h, 0.2 mg/mL) [%]	cell viability, 80% cell viability model (HepG2 cells [2]; 24 h, 0.2 mg/mL) [%]	other results
N[C@@H](CCC(=O)N[C@@H](CS)C(=O)NCC(=O)O)C(=O)O [GSH, Glutathione, reference compound]				CAA Value (HepG2 cells [1]; HepG2, Trolox equivalent, Trolox as standard antioxidant): 4.593 mM TE/g Peptide; EC50 (HepG2 cells [1]; Homo sapiens, HepG2, 1 h, read-out: EC50 (cellular antioxidant activity)): 30 µg/mL (≈ 97.6 µM); cell viability, 50% cell viability model (HepG2 cells [2]; HepG2, AAPH-induced damage (0.25 mM as printed), sample 0.2 mg/mL 24 h then AAPH 24 h, MTT, AAPH damage group 49.51%): 57.60%; cell viability, 80% cell viability model (HepG2 cells [2]; HepG2, AAPH-induced damage (10 mM [sic]), sample 0.2 mg/mL 24 h then AAPH 24 h, MTT, AAPH damage group 79.41%): 92.08%
GGSIT [GGSIT]	73	66.35	96.06	
GGSLT [GGSLT]	64	68.25		
NSVAA [NSVAA]	95	70.55	100.09	
QDHCH [pine nut peptide of a related report]				EC50 value (cellular antioxidant activity) (HepG2 cells [3]): 130 µg/mL
SGTAV [SGTAV]	9	73.61	107.43	
SPSSS [SPSSS]	27	73.52	101.09	
TGVAS [TGVAS]	37	64.69		
